Patent US20260325654A1, “METHODS AND COMPOSITIONS FOR TARGETED PROTEIN DEGRADATION” (Ranok Therapeutics (Hangzhou) Co. Ltd., priority 2023, published 2026)

Assays:
KRAS(G12D) = KRAS(G12D) (Homo sapiens, UniProt P01116, G12D); assay: cell-based; type: cell-based; design: Cell lines SW1990 and GP2D that express KRAS(G12D); host or cells: SW1990; settings: SW1990, read-out: WB data SW1990 DMax
Protocol: Cell lines were cultured according to ATCC, JCRB and Sigma Aldrich recommendations.
Cells were then washed with cold PBS, aspirated and cold RIPA buffer containing a protease/phosphatase inhibitor cocktail was added to lyse cells. After centrifugation, the total protein concentrations of cell lysates were determined using the BCA protein assay. Samples were normalized for equivalent protein concentrations, 5× SDS-PAGE loading buffer added and denatured at 100° C. for 10 min. 20 μl of each sample/well was loaded on a SDS-PAGE gel and electrophoresed for 20 min at 80 V, then 120 V for 1.5 hr. Gels were then electroblotted to nitrocellulose membranes using a wet-transfer method at 250 mA for 2.5 hr. Membranes were incubated with blocking buffer for 1 hr and washed 3 times with TBST for 5 min. Membranes were then incubated with anti-KRAS (Sigma-Aldrich, #SAB1404011) and anti-β-Actin monoclonal antibodies (Cell Signaling Technology, #3700) diluted in blocking buffer at 4° C. overnight per the manufacturer's recommendations. After washing 3 times, blots were incubated with appropriately labeled secondary antibodies for 1 hr at room temperature and washed again. Fluorescence imaging and quantitation was performed using a LI-COR Odyssey. Results was analyzed using GraphPad Prism 7 software. Compound concentrations that induced KRAS degradation (DC50 and DCmax) were calculated using GraphPad Prism 7 software.

GP2D = assay: CellTiter-Glo Reagent cancer cell line proliferation assay, GP2D; type: cell-based; settings: Homo sapiens, KRAS(G12D) heterozygous, 24 hr
Source text: (§1) The following cancer cell lines were employed: • AsPC-1 human pancreatic adenocarcinoma, homozygous KRAS(G12D), (ATCC, #CRL-1682); A-427 human lung carcinoma, heterozygous KRAS(G12D), (ATCC, #HTB-53); AGS human gastric adenocarcinoma, heterozygous KRAS(G12D), (ATCC, #CRL-1739); GP2D human colon adenocarcinoma, heterozygous KRAS(G12D), (Sigma Aldrich, 95090714); SW1990 human pancreatic adenocarcinoma, homozygous KRAS(G12D), (ATCC, #CRL2172); LU65A human lung giant cell carcinoma, heterozygous KRAS(G12C), (JCRB Cell Bank, #JCRB0054); NCIH727 human lung carcinoid, heterozygous KRAS(G12V), (ATCC, #CRL-5815); MKN1 human gastric adenosquamous carcinoma KRAS (wt), (JCRB Cell Bank, #JCRB0252). Cell lines were cultured according to ATCC, JCRB and Sigma Aldrich recommendations.
(§2) Cells were plated in 96-well tissue culture plates at 4,000 cells/well and incubated at 37° C./5% CO2 for 24 hr in 100 μl of media. 3-fold serial dilutions of each test compound were prepared ranging from 20 μM to 1.02 nM. Cells were then treated with test compounds at various concentrations with a final concentration of 0.5% DMSO/well, and then incubated at 37° C./5% CO2 for 24 hr. 100 μl of CellTiter-Glo® Reagent (Promega Corporation, Madison, WI) was added to each well and processed according manufacturer's protocol. Results were analyzed and IC50-values were calculated in GraphPad 7 software.

AGS = assay: CellTiter-Glo Reagent cancer cell line proliferation assay, AGS; type: cell-based, human; settings: Homo sapiens, 24 h, KRAS(G12D) heterozygous
Source text: as §1, §2

LU65A = assay: CellTiter-Glo Reagent cancer cell line proliferation assay, LU65A; type: cell-based, human; settings: Homo sapiens, 24 h, KRAS(G12C) heterozygous
Source text: as §1, §2

MKN1 = assay: CellTiter-Glo Reagent cancer cell line proliferation assay, MKN1; type: cell-based; settings: Homo sapiens, MKN-1; MKN1, KRAS (wt), 24 hr
Source text: as §1, §2

NCIH727 = assay: CellTiter-Glo Reagent cancer cell line proliferation assay, NCIH727; type: cell-based, human; settings: Homo sapiens, NCI-H727, 24 h, NCIH727, KRAS(G12V) heterozygous
Source text: as §1, §2

KRAS(G12D), sequence (P01116 1-188 isoform P01116-2 G12D): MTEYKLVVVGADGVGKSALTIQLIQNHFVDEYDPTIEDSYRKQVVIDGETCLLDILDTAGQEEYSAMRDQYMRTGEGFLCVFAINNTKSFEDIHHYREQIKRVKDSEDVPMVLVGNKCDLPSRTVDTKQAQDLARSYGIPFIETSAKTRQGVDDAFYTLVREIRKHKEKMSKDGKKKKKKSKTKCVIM

SMILES | Dmax (KRAS(G12D)) | IC50 (GP2D) | IC50 (AGS) | IC50 (LU65A) | IC50 (MKN1) | IC50 (NCIH727)
C#Cc1cccc2cc(O)cc(-c3ncc4c(N5CC6CCC(C5)N6)nc(OCC5(CN6CCN(CC7CCN(CC(=O)N[C@@H](C(=O)N8C[C@@H](O)C[C@@H]8C(=O)NCc8ccc(-c9scnc9C)cc8)C(C)(C)C)CC7)CC6)CC5)nc4c3F)c12 [Compound 52] | > 50% | – | – | – | – | –
C#Cc1c(F)ccc2cc(O)cc(-c3ncc4c(N5CC6CCC(C5)N6)nc(OCC5(CN6CCC(N7CCC(c8ccc9c(c8)CN(C8CCC(=O)NC8=O)C9=O)CC7)CC6)CC5)nc4c3F)c12 (stereo not shown) [Compound 77] | > 50% | – | – | – | – | –
C#Cc1c(F)ccc2cc(O)cc(-c3nc(OC)c4c(N5CC6CCC(C5)N6)nc(OCC5(CN6CCN(C7CCN(c8ccc9c(c8)CN(C8CCC(=O)NC8=O)C9=O)CC7)CC6)CC5)nc4c3F)c12 (stereo not shown) [Compound 82] | > 50% | – | – | – | – | –
C#Cc1c(F)ccc2cc(O)cc(-c3ncc4c(N5C[C@H]6CC[C@@H](C5)N6)nc(OCC5(CN6CCC(CN7CCC(c8ccc9c(c8)CN(C8CCC(=O)NC8=O)C9=O)C(F)(F)C7)CC6)CC5)nc4c3F)c12 (stereo partly drawn) [Compound 93, 3-(5-(1-((1-((1-(((4-((1R,5S)-3,8-diazabicyclo[3.2.1]octan-3-yl)-7-(8-ethynyl-7-fluoro-3-hydroxynaphthalen-1-yl)-8-fluoropyrido[4,3-d]pyrimidin-2-yl)oxy)methyl)cyclopropyl)methyl)piperidin-4-yl)methyl)-3,3-difluoropiperidin-4-yl)-1-oxoisoindolin-2-yl) piperidine-2,6-dione] | – | < 100 nM | < 100 nM | – | – | –
[2H]C([2H])([2H])Oc1nc(-c2cc(O)cc3ccc(F)c(C#C)c23)c(F)c2nc(OCC3(CN4CCN(CC5CCN(c6ccc7c(c6)CN(C6CCC(=O)NC6=O)C7=O)CC5)CC4)CC3)nc(N3CC4CCC(C3)N4CC3CC3)c12 (stereo not shown) [Compound 99] | – | 100 to 1000 nM | > 1000 nM | – | – | –
C#Cc1c(F)ccc2cc(O)cc(-c3nc(OC)c4c(N5CCN(C(=O)CC#N)[C@@H](CC#N)C5)nc(OCC5(CN6CCN(CC7CCN(c8ccc9c(c8)CN(C8CCC(=O)NC8=O)C9=O)CC7)CC6)CC5)nc4c3F)c12 (stereo partly shown) [Compound 104] | – | > 1000 nM | > 1000 nM | 100 to 1000 nM | 100 to 1000 nM | > 1000 nM
C#Cc1c(F)ccc2cc(O)cc(-c3ncc4c(N5CC6CCC(C5)N6C(=O)[C@H](C)C#N)nc(OCC5(CN6CCN(CC7CCN(c8ccc9c(c8)CN(C8CCC(=O)NC8=O)C9=O)CC7)CC6)CC5)nc4c3F)c12 (stereo partly shown) [Compound 110] | – | > 1000 nM | > 1000 nM | < 100 nM | 100 to 1000 nM | 100 to 1000 nM
[2H]C([2H])([2H])Oc1nc(-c2cc(O)cc3ccc(F)c(C#C)c23)c(F)c2nc(OCC3(CN4CCN(CC5CCN(c6ccc7c(c6)CN(C6CCC(=O)NC6=O)C7=O)CC5)CC4)CC3)nc(N3CC4CCC(C3)N4C(=O)C(C)CC#N)c12 (stereo not shown) [Compound 116] | – | 100 to 1000 nM | 100 to 1000 nM | 100 to 1000 nM | 100 to 1000 nM | > 1000 nM
C#Cc1c(F)ccc2cc(O)cc(-c3nc(OC)c4c(N5CC6CCC(C5)N6C(=O)CCC#N)nc(OCC5(CN6CCN(CC7CCN(c8ccc9c(c8)CN(C8CCC(=O)NC8=O)C9=O)CC7)CC6)CC5)nc4c3F)c12 (stereo not shown) [Compound 117] | – | < 100 nM | < 100 nM | < 100 nM | 100 to 1000 nM | < 100 nM
C#Cc1c(F)ccc2cc(O)cc(-c3ncc4c(N5CC6CCC(C5)N6C(=O)NC(C)(C)C)nc(OCC5(CN6CCN(CC7CCN(c8ccc9c(c8)CN(C8CCC(=O)NC8=O)C9=O)CC7)CC6)CC5)nc4c3F)c12 (stereo not shown) [Compound 118] | – | < 100 nM | 100 to 1000 nM | 100 to 1000 nM | 100 to 1000 nM | > 1000 nM
C#Cc1c(F)ccc2cc(O)cc(-c3nc(OC)c4c(N5CCN(C(=O)C=C)[C@@H](CC#N)C5)nc(OCC5(CN6CCN(CC7CCN(c8ccc9c(c8)CN(C8CCC(=O)NC8=O)C9=O)CC7)CC6)CC5)nc4c3F)c12 (stereo partly shown) [Compound 125] | – | – | – | < 100 nM | < 100 nM | –
N#CCCC(=O)N1C2CCC1CN(c1nc(OCC3(CN4CCN(CC5CCN(c6ccc7c(c6)CN(C6CCC(=O)NC6=O)C7=O)CC5)CC4)CC3)nc3c(F)c(-c4cc(N)cc(Cl)c4C(F)(F)F)c(Cl)cc13)C2 (stereo not shown) [Compound 153] | – | – | < 100 nM | < 100 nM | – | < 100 nM
C#Cc1c(F)ccc2cc(O)cc(-c3nc(OC)c4c(N5CC6CCC(C5)N6C(=O)CC(C)C#N)nc(OCC5(CN6CCN(C[C@H]7CCN(c8ccc9c(c8)CN(C8CCC(=O)NC8=O)C9=O)C[C@@H]7F)CC6)CC5)nc4c3F)c12 (stereo partly shown) [Compound 154] | – | – | < 100 nM | < 100 nM | – | < 100 nM
N#Cc1c(N)sc2c1C1(CCC2)CCCc2c(-c3nc(Cl)cc(OCC4(CN5CCN(CC6CCN(c7ccc8c(c7)CN(C7CCC(=O)NC7=O)C8=O)CC6)CC5)CC4)n3)noc21 (stereo not shown) [Compound 156] | – | – | < 100 nM | < 100 nM | – | < 100 nM
C#Cc1c(F)ccc2cc(O)cc(-c3nc(OC)c4c(N5CCCOC6CC65)nc(OCC5(CN6CCN(CC7CCN(c8ccc9c(c8)CN(C8CCC(=O)NC8=O)C9=O)CC7)CC6)CC5)nc4c3F)c12 (stereo not shown) [Compound 157] | – | – | < 100 nM | < 100 nM | – | < 100 nM
C#Cc1c(F)ccc2cc(O)cc(-c3nc4c5c(nc(OCC6(CN7CCN(CC8CCN(c9ccc%10c(c9)CN(C9CCC(=O)NC9=O)C%10=O)CC8)CC7)CC6)nc5c3F)N(CC(F)F)[C@@H](C)CO4)c12 (stereo partly shown) [Compound 158] | – | – | < 100 nM | < 100 nM | – | < 100 nM
C#Cc1c(F)ccc2cc(O)cc(-c3nc(OC)c4c(N5CC6CCC(C5)N6C(=O)CCC#N)nc(OCC5(CN6CCN(CC7CCN(c8ccc9c(N%10CCC(=O)NC%10=O)nn(C)c9c8)CC7)CC6)CC5)nc4c3F)c12 [Compound 159] | – | – | < 100 nM | < 100 nM | – | < 100 nM
C#Cc1c(F)ccc2cc(O)cc(-c3nc(OC)c4c(N5CC6CCC(C5)N6C(=O)C[C@@H](C)C#N)nc(OCC5(CN6CCN(CC7CCN(c8ccc9c(N%10CCC(=O)NC%10=O)nn(C)c9c8)CC7)CC6)CC5)nc4c3F)c12 [Compound 160] | – | – | < 100 nM | < 100 nM | – | < 100 nM
C#Cc1c(F)ccc2cc(O)cc(-c3nc(OC)c4c(N5CC6CCC(C5)N6C(=O)CC(C)C#N)nc(OCC5(CN6CCC(CN7CCC(c8ccc9c(c8)CN(C8CCC(=O)NC8=O)C9=O)C(F)(F)C7)CC6)CC5)nc4c3F)c12 (stereo not shown) [Compound 161] | – | – | < 100 nM | < 100 nM | – | < 100 nM
C#Cc1c(F)ccc2cc(O)cc(-c3nc(OC)c4c(N5CC6CCC(C5)N6C(=O)C[C@@H](C)C#N)nc(OCC5(CN6CCN(CN7CCC(N8Cc9cc%10c(cc9C8)C(=O)N(C8CCC(=O)NC8=O)C%10)CC7)CC6)CC5)nc4c3F)c12 (stereo partly shown) [Compound 162] | – | – | < 100 nM | < 100 nM | – | < 100 nM
C#Cc1c(F)ccc2cc(O)cc(-c3nc(OC)c4c(N5CC6CCC(C5)N6C(=O)CCC#N)nc(OCC5(CN6CCC(CN7CCC(N8Cc9cc%10c(cc9C8)C(=O)N(C8CCC(=O)NC8=O)C%10)CC7)CC6)CC5)nc4c3F)c12 (stereo not shown) [Compound 163] | – | – | < 100 nM | < 100 nM | – | < 100 nM
C#Cc1c(F)ccc2cc(O)cc(-c3nc(OC)c4c(N5CCCO[C@H]6C[C@H]65)nc(OCC5(CN6CCN(CC7CCN(c8ccc9c(c8)CN(C8CCC(=O)NC8=O)C9=O)CC7)CC6)CC5)nc4c3F)c12 (stereo partly shown) [Compound 164] | – | – | < 100 nM | < 100 nM | – | < 100 nM
C#Cc1c(F)ccc2cc(O)cc(-c3nc(OC)c4c(N5CCCO[C@@H]6C[C@@H]65)nc(OCC5(CN6CCN(CC7CCN(c8ccc9c(c8)CN([C@H]8CCC(=O)NC8=O)C9=O)CC7)CC6)CC5)nc4c3F)c12 [Compound 165] | – | – | < 100 nM | < 100 nM | – | < 100 nM
